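96-well plates; 48 h exposure; 5 concentrations. Endpoints by linear interpolation between flanking doses. Not reached: highest tested concentration assigned. GI50 marks 50% less growth.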 Calls of active or inactive are those of the source. Cut-off read from the data, not from the text of the source: active = GI50 up to about 1.1 µM and inactive = higher. Where a SMILES comes first, the peptide text is derived from it. [ ]: non-standard residue; d: D form. The star is where a group is joined. ξ: configuration not given here. X4 = COc1ccc(C(N*)c2ccc(OC)cc2)cc1; NMeF = CN[C@@H](Cc1ccccc1)C(=O)O; NMeD = CN[C@@H](CC(=O)O)C(=O)O; NMeV = CN[C@H](C(=O)O)C(C)C; ξNMeV = CNC(C(=O)O)C(C)C; Boc = CC(C)(C)OC(=O)*; ξNMeA = CNC(C)C(=O)O; ξV = CC(C)C(N)C(=O)O
Legend:
Experiment in all cases: NCI-60 cell line screen, 48 h
DLD-1 = system: DLD-1
SNB-78 = system: SNB-78
SK-MEL-5 = system: SK-MEL-5
OVCAR-5 = system: OVCAR-5
HCT-116 = system: HCT-116
HT-29 = system: HT-29
OVCAR-8 = system: OVCAR-8
A549 = system: A549
M14 = system: M14
U-251 = system: U-251
NCI-H460 = system: NCI-H460
UO-31 = system: UO-31
HCC 2998 = system: HCC 2998
TK-10 = system: TK-10
OVCAR-4 = system: OVCAR-4
NCI-H23 = system: NCI-H23
HL-60 = system: HL-60
NCI-H522 = system: NCI-H522
LXFL 529 = system: LXFL 529
LOX IMVI = system: LOX IMVI
K562 = system: K562
MOLT-4 = system: MOLT-4
KM12 = system: KM12
CCRF-CEM = system: CCRF-CEM
SK-MEL-2 = system: SK-MEL-2
786-0 = system: 786-0
SF-295 = system: SF-295
UACC-257 = system: UACC-257
SR = system: SR
IGROV-1 = system: IGROV-1
SF-539 = system: SF-539
HOP-62 = system: HOP-62
SK-OV-3 = system: SK-OV-3
CAKI-1 = system: CAKI-1
OVCAR-3 = system: OVCAR-3
COLO 205 = system: COLO 205
KM-20L2 = system: KM-20L2
SN12C = system: SN12C
DMS-114 = system: DMS-114
SNB-19 = system: SNB-19
SW-620 = system: SW-620
Malme-3M = system: Malme-3M
HCT-15 = system: HCT-15
ACHN = system: ACHN
DMS-273 = system: DMS-273
A498 = system: A498
SF-268 = system: SF-268
EKVX = system: EKVX
NCI-H226 = system: NCI-H226
UACC-62 = system: UACC-62
RPMI-8226 = system: RPMI-8226
MDA-MB-435 = system: MDA-MB-435
DU-145 = system: DU-145
SK-MEL-28 = system: SK-MEL-28
RXF 393 = system: RXF 393
Hs-578T = system: Hs-578T
MDA-MB-231 = system: MDA-MB-231
MCF7 = system: MCF7
M19-MEL = system: M19-MEL
SNB-75 = system: SNB-75
PC-3 = system: PC-3
HOP-92 = system: HOP-92
XF498 = system: XF498
MDA-N = system: MDA-N
T47D = system: T47D
BT-549 = system: BT-549
NCI/ADR-RES = system: NCI/ADR-RES

## COC(=O)[C@]1(C)CCC[C@]2(C)C3CC4OOC3(C=C4C(C)C)CCC21 (stereo partly drawn)
DLD-1
  GI50: 12.7 µM (inactive)
SNB-78
  GI50: 16.5 µM (inactive)
SK-MEL-5
  GI50: 16.1 µM (inactive)
OVCAR-5
  GI50: 19.6 µM (inactive)
HCT-116
  GI50: 15.7 µM (inactive)
HT-29
  GI50: 14.7 µM (inactive)
OVCAR-8
  GI50: 19.8 µM (inactive)
A549
  GI50: 16.8 µM (inactive)
M14
  GI50: 15.5 µM (inactive)
U-251
  GI50: 19.8 µM (inactive)
NCI-H460
  GI50: 12.4 µM (inactive)
UO-31
  GI50: 15.2 µM (inactive)
HCC 2998
  GI50: 16.5 µM (inactive)
TK-10
  GI50: 23.4 µM (inactive)
OVCAR-4
  GI50: 19.9 µM (inactive)
NCI-H23
  GI50: 18.8 µM (inactive)
HL-60
  GI50: 2.07 µM (inactive)
NCI-H522
  GI50: 1.78 µM (inactive)
LXFL 529
  GI50: 13.7 µM (inactive)
LOX IMVI
  GI50: 2.77 µM (inactive)
K562
  GI50: 12 µM (inactive)
MOLT-4
  GI50: 16.9 µM (inactive)
KM12
  GI50: 17.4 µM (inactive)
CCRF-CEM
  GI50: 3.01 µM (inactive)
SK-MEL-2
  GI50: 17.2 µM (inactive)
786-0
  GI50: 5.51 µM (inactive)
SF-295
  GI50: 16.3 µM (inactive)
UACC-257
  GI50: 17.3 µM (inactive)
SR
  GI50: 9.66 µM (inactive)
IGROV-1
  GI50: 16 µM (inactive)
SF-539
  GI50: 17 µM (inactive)
HOP-62
  GI50: 24.5 µM (inactive)
SK-OV-3
  GI50: 20.1 µM (inactive)
CAKI-1
  GI50: 21.9 µM (inactive)
OVCAR-3
  GI50: 31.8 µM (inactive)
COLO 205
  GI50: 19.7 µM (inactive)
KM-20L2
  GI50: 17.9 µM (inactive)
SN12C
  GI50: 16.8 µM (inactive)
DMS-114
  GI50: 13.7 µM (inactive)
SNB-19
  GI50: 17.4 µM (inactive)
SW-620
  GI50: 16 µM (inactive)
Malme-3M
  GI50: 20.8 µM (inactive)
HCT-15
  GI50: 16.5 µM
ACHN
  GI50: 17.4 µM (inactive)
DMS-273
  GI50: 18.5 µM (inactive)
A498
  GI50: 11.4 µM (inactive)
SF-268
  GI50: 15.4 µM (inactive)
EKVX
  GI50: 16.7 µM (inactive)
NCI-H226
  GI50: 19.6 µM (inactive)
UACC-62
  GI50: 17.1 µM (inactive)
RPMI-8226
  GI50: 12.7 µM (inactive)

## COc1ccc(C(NC(=O)C[C@@H](C(=O)N(C)C(C)C(=O)O)N(C)C(=O)[C@@H]2CCCN2C(=O)[C@H](C(C)C)N(C)C(=O)C(C(C)C)N(C)C(=O)[C@H](Cc2ccccc2)N(C)C(=O)C(NC(=O)OC(C)(C)C)C(C)C)c2ccc(OC)cc2)cc1 (stereo partly drawn) (Boc-[ξV][NMeF][ξNMeV][NMeV]P[NMeD](X4)[ξNMeA]-OH)
DLD-1
  GI50: 18 µM (inactive)
MDA-MB-435
  GI50: 9.1 µM (inactive)
SNB-78
  GI50: 15.8 µM (inactive)
DU-145
  GI50: 25.9 µM (inactive)
SK-MEL-28
  GI50: 7.62 µM (inactive)
SK-MEL-5
  GI50: 6.52 µM (inactive)
RXF 393
  GI50: 7.5 µM (inactive)
Hs-578T
  GI50: 2.56 µM (inactive)
OVCAR-5
  GI50: > 37.5 µM (inactive)
HCT-116
  GI50: 13.1 µM (inactive)
HT-29
  GI50: 16.2 µM (inactive)
OVCAR-8
  GI50: 22.1 µM (inactive)
A549
  GI50: > 37.5 µM (inactive)
M14
  GI50: 11.8 µM (inactive)
U-251
  GI50: 9.75 µM (inactive)
NCI-H460
  GI50: 24.5 µM (inactive)
UO-31
  GI50: 24.8 µM (inactive)
HCC 2998
  GI50: 6.76 µM (inactive)
TK-10
  GI50: 23.7 µM (inactive)
OVCAR-4
  GI50: 17.5 µM (inactive)
NCI-H23
  GI50: 10.4 µM (inactive)
HL-60
  GI50: 8 µM (inactive)
MDA-MB-231
  GI50: 11.3 µM (inactive)
NCI-H522
  GI50: 11.5 µM (inactive)
LXFL 529
  GI50: 14.7 µM (inactive)
LOX IMVI
  GI50: 7.66 µM (inactive)
K562
  GI50: 11 µM (inactive)
MOLT-4
  GI50: 8.39 µM (inactive)
MCF7
  GI50: 16.1 µM (inactive)
KM12
  GI50: 7.18 µM (inactive)
CCRF-CEM
  GI50: 7.43 µM (inactive)
M19-MEL
  GI50: 16.9 µM (inactive)
SK-MEL-2
  GI50: 7.74 µM (inactive)
786-0
  GI50: 21.3 µM (inactive)
SF-295
  GI50: 18.9 µM (inactive)
UACC-257
  GI50: 9.75 µM (inactive)
SR
  GI50: 15.6 µM (inactive)
IGROV-1
  GI50: 8.43 µM (inactive)
SF-539
  GI50: 7.94 µM (inactive)
HOP-62
  GI50: 13.4 µM (inactive)
SK-OV-3
  GI50: > 37.5 µM (inactive)
SNB-75
  GI50: 4.24 µM (inactive)
PC-3
  GI50: 13.7 µM (inactive)
CAKI-1
  GI50: 29.6 µM (inactive)
OVCAR-3
  GI50: 13.3 µM (inactive)
HOP-92
  GI50: 8.26 µM (inactive)
COLO 205
  GI50: 20.4 µM (inactive)
KM-20L2
  GI50: 19.9 µM (inactive)
XF498
  GI50: 15.8 µM (inactive)
MDA-N
  GI50: 12.5 µM (inactive)
T47D
  GI50: 11.9 µM (inactive)
SN12C
  GI50: 25.5 µM (inactive)
DMS-114
  GI50: 16.5 µM (inactive)
SNB-19
  GI50: 22.4 µM (inactive)
SW-620
  GI50: 8.18 µM (inactive)
BT-549
  GI50: 6.73 µM (inactive)
Malme-3M
  GI50: 14.4 µM (inactive)
HCT-15
  GI50: 21.9 µM
ACHN
  GI50: 36.9 µM (inactive)
NCI/ADR-RES
  GI50: > 37.5 µM (inactive)
DMS-273
  GI50: 17.2 µM (inactive)
A498
  GI50: > 37.5 µM (inactive)
SF-268
  GI50: 7.53 µM (inactive)
EKVX
  GI50: 25.6 µM (inactive)
NCI-H226
  GI50: 7.64 µM (inactive)
UACC-62
  GI50: 6.73 µM (inactive)
RPMI-8226
  GI50: 8.24 µM (inactive)

— ChEMBL document CHEMBL1201862, “PubChem BioAssay data set” (2004)
